For test [1], the system named is interaction between gp120 and CCR5. The test can be described thus: Effectiveness of peptides based upon E51.
Test [2] relates to association of gp120 with CCR5. The note with it: peptides previously characterized; cited from earlier work.
The test system of a further test is ADA gp120. The experiment in a line: Peptide competition of scFv association with ADA gp120 and CD4-Ig. The test is classed as binding, HIV-1. The following applies: scFv of sulfated antibodies. How it is done: Radiolabeled single-chain antibody constructs (scFv) were incubated with radiolabeled gp120 of the ADA isolate in the presence and absence of soluble CD4. […] Ratios of gp120 precipitated in the presence and absence of soluble CD4 were calculated by densitometry. Radiolabeled scFv was incubated with ADA gp120 and CD4-Ig in the presence of peptide buffer (buffer only), an unsulfated peptide derived from the first 22 residues of the CCR5 amino-terminus (c22), a peptide derived from the first 22 residues of the CCR5 amino-terminus in which tyrosines 10 and 14 are sulfated (s22), or a peptide derived from residues 7-28 of the C5a receptor sulfated at the tyrosines corresponding to residues 11 and 14 of the C5a receptor (c5aR-s22).

Ends that are not written are not given here. * marks the point of attachment. SO3H = O=S(=O)(O)*

As for “GDYADYDGGYYYDMD (listed as Homo sapiens) [SEQ ID NO:3, shorter peptide based upon E51]”, the “effectiveness compared with the longer sequence SEQ ID NO:4” value in test [1] is reported as “just as effective as the longer sequence”.

In the case of “c5aR-s22: peptide from residues 7-28 of the C5a receptor sulfated at tyrosines 11 and 14”, the “effect of peptide on the association of gp120 with CCR5” value in test [2] is given as “did not have a noticeable effect”. Besides, the “effect of peptide on association of scFv with ADA gp120” value (from here on “effect of peptide … with ADA gp120”) in the test with ADA gp120 was “very modest inhibition”.

Take “c22: unsulfated peptide derived from the first 22 residues of the CCR5 amino-terminus (MDYQVSSPIYDINYYTSEPCQK; UniProt P51681 1-22, looked up, fragment)”: in the test on ADA gp120, the “effect of peptide … with ADA gp120” value is reported as “no significant effect”.

For the substance “s22: peptide from the first 22 residues of the CCR5 amino-terminus in which tyrosines 10 and 14 are sulfated (MDYQVSSPIY(SO3H)DINY(SO3H)YTSEPCQK)”, the “effect of peptide … with ADA gp120” value in the test on ADA gp120 is reported as “inhibited”.
